This note sets out measurements from ChEMBL document CHEMBL1800035, “An optimized immunoaffinity fluorescent method for natural product target elucidation” (J Nat Prod, 2010).

Data set [1] addresses T1, Protein kinase C eta type (Homo sapiens, UniProt P24723). Put plainly: Binding affinity to PKCeta in human HeLa cell lysates at 10 nM to 100 uM after 2 hrs by immunoprecipitation analysis.
Data set [2] has as its system HeLa. Briefly: Drug uptake in human HeLa cells assessed as subcellular localization in endoplasmic reticulum at 25 uM after 6 hrs by live cell microscopic analysis. In kind it is ADME, cell-based.
Data set [3] deals with T1, Protein kinase C eta type. Briefly: Binding affinity to recombinant human PKCeta in after 2 hrs by microequilibrium dialysis assay. On the technique in general: In equilibrium dialysis only unbound substance equilibrates across the membrane.
Data set [4] deals with HeLa. Briefly: Drug uptake in human HeLa cells assessed as subcellular localization in endoplasmic reticulum at 10 uM after 6 hrs using blue-fluorescent IAF-tagged streptavidin staining by live cell microscopic analysis. In kind it is ADME, cell-based.
In data set [5] the test system is HeLa. Put plainly: Drug uptake in human HeLa cells assessed as subcellular localization in endoplasmic reticulum at 10 uM after 6 hrs using blue-fluorescent IAF-tagged streptavidin staining by live cell microscopic analysis presence of glycyrrhetic acid. In kind it is ADME, cell-based.
Data set [6] can be described thus: Binding affinity to mouse IAF-labeled immunoglobulin G mAb by immunoaffinity fluorescent method.

The structures appear in SMILES notation. Active and inactive are the calls of the source. The rule behind the calls is not given here.

T1 sequence (P24723 whole entry): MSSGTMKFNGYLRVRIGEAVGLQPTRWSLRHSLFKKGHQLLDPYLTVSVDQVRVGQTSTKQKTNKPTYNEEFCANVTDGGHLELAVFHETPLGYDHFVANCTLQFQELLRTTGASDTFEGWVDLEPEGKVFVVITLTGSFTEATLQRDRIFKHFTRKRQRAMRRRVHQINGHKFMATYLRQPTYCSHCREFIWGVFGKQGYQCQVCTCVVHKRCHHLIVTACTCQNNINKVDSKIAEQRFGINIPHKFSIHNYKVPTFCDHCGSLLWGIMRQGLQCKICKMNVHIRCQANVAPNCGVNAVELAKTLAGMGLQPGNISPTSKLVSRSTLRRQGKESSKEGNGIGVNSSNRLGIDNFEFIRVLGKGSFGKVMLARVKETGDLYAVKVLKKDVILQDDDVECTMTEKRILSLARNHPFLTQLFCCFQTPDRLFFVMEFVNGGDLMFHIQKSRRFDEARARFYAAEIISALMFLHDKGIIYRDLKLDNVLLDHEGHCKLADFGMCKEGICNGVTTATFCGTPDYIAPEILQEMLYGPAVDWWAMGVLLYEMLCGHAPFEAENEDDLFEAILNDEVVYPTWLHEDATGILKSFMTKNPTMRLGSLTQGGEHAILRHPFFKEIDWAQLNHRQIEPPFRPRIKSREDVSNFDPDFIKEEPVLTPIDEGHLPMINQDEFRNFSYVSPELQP

Turning to `C#CCNC(=O)Cc1cc(=O)oc2cc(N(C)C)ccc12`, the result in data set [1] was inactive.

`CC1(C)[C@@H](O)CC[C@]2(C)[C@H]3C(=O)C=C4[C@@H]5C[C@@](C)(C(=O)NCCN=[N+]=[N-])CC[C@]5(C)CC[C@@]4(C)[C@]3(C)CC[C@@H]12`: in data set [1], the result was inactive.

A word on the Kd: it is the free concentration of one partner at which half of the binding sites on the other are occupied at equilibrium, for simple one-to-one binding. For the compound `CC1(C)[C@@H](O)CC[C@]2(C)[C@H]3C(=O)C=C4[C@@H]5C[C@@](C)(C(=O)O)CC[C@]5(C)CC[C@@]4(C)[C@]3(C)CC[C@@H]12` [ENOXOLONE], in the data set with HeLa [2], the Drug uptake result is reported as “Active”. Also, in data set [3], the equilibrium dissociation constant (Kd) was 250 nM.

With `CC1(C)[C@@H](O)CC[C@]2(C)[C@H]3C(=O)C=C4[C@@H]5C[C@@](C)(C(=O)NCCNC(=O)CCCC[C@@H]6SC[C@@H]7NC(=O)N[C@@H]76)CC[C@]5(C)CC[C@@]4(C)[C@]3(C)CC[C@@H]12`, the Drug uptake result with HeLa [4] was “Not Active”.

On to `CN(C)c1ccc2c(CC(=O)NCCNC(=O)[C@@]3(C)CC[C@]4(C)CC[C@]5(C)C(=CC(=O)[C@@H]6[C@@]7(C)CC[C@H](O)C(C)(C)[C@@H]7CC[C@]65C)[C@@H]4C3)cc(=O)oc2c1`, for which the Drug uptake result with HeLa [5] is recorded as “Not Active”; in the data set on HeLa [4], “Active”. In addition, the Kd in data set [3] is 640 nM; in data set [6] it was 540 nM.
